Patent US20090149531A1, “CHEMICAL COMPOSITION DERIVED FROM P-HYDROXYPHENYL PROPIONIC ACID FOR THE TREATMENT OF PSORIASIS” (APOTEKNOS PARA LA PIEL, S.L., priority 2007, published 2009)
Several values for one entry are separate records, joined by “and”; a condition that tells them apart may be missing. Equal entries are not always repeated.

Legend:
[1] = Signs of toxicity and deaths in the hairless rat study; format: in vivo; details: compound A at 1%, topical
Experimental: A Control Group was included, administered only with the vehicle (absolute ethanol).
The treatments were administered topically, once a day for 10 days (100 μg/side/animal). The animals were weighed on a daily basis throughout the study and the grade of erythema was evaluated (0=Absence of erythema, 1=Low grade erythema, 3=High grade erythema). On the last day of the study, day 11, the amount of corneous material extracted from the epidermis of the animals was evaluated.

[2] = test system: Salmonella typhimurium TA100; assay: Ames test without external metabolisation, TA100; format: cell-based; details: no metabolic activation; for Colonies per plate: individual plates 1-4, A; for Colonies per plate / Colonies per plate, Mean: 48 hours; for Mutagenic Ind,: relative to H+/B+
Experimental: The mutagenic activity of compound A was evaluated using the Ames test without external metabolisation. The Ames test is based on the use of bacterial strains to detect mutations in the DNA in vitro using bacterial strains that make it possible to detect types of damage to the genome.
Bacteria of 4 strains of Salmonella typhimurium that are internationally recommended for this test, TA1535, TA1537, TA98 and TA100, were used. The test was carried out according to highly standardised protocols. […] The test was carried out without external metabolic activation. The plates were incubated at 37° C. and the reverting colonies were counted after 48 hours.

For C=C1C(=O)O[C@H](CCc2ccc(OC)cc2)[C@@H]1C [Compound A], the signs of toxicity [1] was “none of the animals presented signs of toxicity”, the Colonies per plate ([2]; Comp. A 10 μg/ml) was 38 and 41 and 44 and 54 and the “Colonies per plate, Mean” value ([2]; Comp. A 10 μg/ml) was 44.25. For the same compound, the “Mutagenic Ind,” value ([2]; Comp. A 10 μg/ml) was 0.9124, the Colonies per plate ([2]; Comp. A 100 μg/ml) was 45 and 35 and 31 and 51 and the “Colonies per plate, Mean” value ([2]; Comp. A 100 μg/ml) was 40.5. For the same compound, the “Mutagenic Ind,” value ([2]; Comp. A 100 μg/ml) was 0.8351, the Colonies per plate ([2]; Comp. A 1 mg/ml) was 52 and 37 and 38 and 40 and the “Colonies per plate, Mean” value ([2]; Comp. A 1 mg/ml) was 44. The “Mutagenic Ind,” value ([2]; Comp. A 1 mg/ml) was 0.9072 and the “Ames test result (mutagenic effects)” value ([2]; TA100, concentrations evaluated 10 μg/ml to 1 mg/ml) was “negative”.
